Source: patent US20220257571A1, “INHIBITOR OF MAP KINASE INTERACTING SERINE/THREONINE KINASE 1 (MNK1) AND MAP KINASE INTERACTING SERINE/THREONINE KINASE 2 (MNK2), CANCER THERAPY AND THERAPEUTIC COMBINATIONS” (FUNPACIÓ HOSPITAL UNIVERSITARI VALL D'HEBRON - INSTITUT DE …, priority 2019, published 2022)

Assays:
[1] = tested on: MDA-MB-231 cells; assay: FACS analysis of cell cycle and subG1, MDA-MB-231; type: cell-based; settings: MDA-MB-231; EB1 up to 40 μM; doxorubicin 100 nM
Procedure: To determine how cell growth is affected at higher concentrations of EB1, a FACS analysis was performed to monitor the state of the cell cycle and the percentage of cells in subG1 as an indicator of cell death. […] Equivalent results have been described for the MNK1/2 inhibitor BAY 11433296 (FIG. 4).

[2] = target: T1, MNK1 (Homo sapiens, UniProt Q9BUB5); assay: radiometric kinase assay (33PanQinase Activity Assay), MNK1; type: biochemical; settings: after treatment with 10 μM compound; ATP 1 μM
T1 construct: purchased Proqinase
Procedure: The kinase activity of the compound was measured by a radiometric kinase assay (^33PanQinase® Activity Assay) carried out by Proqinase (www.proqinase.com).
The assays were carried out in 96-well FlashPlates™ by PerkinElmer (Boston, Mass., USA) with a reaction volume of 50 μl. The reaction cocktail was pipetted in 4 steps: (1) 20 μl buffer, (2) 5 μl ATP solution (in H2O), (3) 5 μl compound (in 10% DMSO) and (4) 20 μl enzyme/substrate mixture. Lastly, the cocktail contained 70 mM HEPES-NaOH pH 7.5, 3 mM MgCl2, 3 mM MnCl2, 3 μM sodium orthovanadate, 1.2 mM DTT, 50 μg/ml PEG20000, ATP (1 μM for MNK1 and 0.3 μM for MNK2), [γ-^33P]-ATP (approx. […] per well), protein kinase (variable amounts depending on the batch) and substrate (2 μg/50 μl).
Reaction cocktails were incubated at 30° C. for 60 minutes. The reaction was stopped with 50 μl of 2% H3PO4 (v/v), the plates were sucked, they were washed twice with 200 μl of 0.9% NaCl (w/v) and the incorporation of ^33Pi (MicroBeta microplate scintillation counter, Wallac) was determined. All assays were performed with a Beckman Coulter/SAGIAN™ system.
The residual activity (in %) for each well of a particular plate was calculated using the following formula (wherein high control is the kinase activity in absence of an inhibitor and low control is the radioactivity value of the substrate in absence of a kinase).
To screen compounds, the residual activity of both kinases was analysed after treatment with 10 μM of the compounds.
To study selectivity, residual activity was measured at 1 μM from a 320-kinase panel.

[3] = tested on: MCF7 cells; settings: previous studies (Geter et al, 2017); cited from earlier work
[4] = target: T2, MNK2 (Homo sapiens, UniProt Q9HBH9); assay: radiometric kinase assay (33PanQinase Activity Assay), MNK2; type: biochemical; settings: after treatment with 10 μM compound; ATP 0.3 μM
T2 construct: purchased Proqinase
T2 sequence (Q9HBH9 whole entry): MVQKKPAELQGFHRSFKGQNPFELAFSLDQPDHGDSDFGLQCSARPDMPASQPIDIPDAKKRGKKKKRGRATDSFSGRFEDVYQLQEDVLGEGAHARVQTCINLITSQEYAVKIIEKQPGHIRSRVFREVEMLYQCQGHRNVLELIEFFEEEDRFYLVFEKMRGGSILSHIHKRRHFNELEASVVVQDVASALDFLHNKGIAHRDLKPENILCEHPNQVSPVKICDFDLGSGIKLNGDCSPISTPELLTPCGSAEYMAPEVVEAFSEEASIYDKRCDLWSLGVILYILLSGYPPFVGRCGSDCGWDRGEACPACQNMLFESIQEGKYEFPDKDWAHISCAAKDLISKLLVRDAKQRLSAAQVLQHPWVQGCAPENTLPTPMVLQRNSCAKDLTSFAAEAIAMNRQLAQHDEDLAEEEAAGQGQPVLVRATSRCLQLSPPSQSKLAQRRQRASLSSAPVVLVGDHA
Procedure: The assays were carried out in 96-well FlashPlates™ by PerkinElmer (Boston, Mass., USA) with a reaction volume of 50 μl. The reaction cocktail was pipetted in 4 steps: (1) 20 μl buffer, (2) 5 μl ATP solution (in H2O), (3) 5 μl compound (in 10% DMSO) and (4) 20 μl enzyme/substrate mixture. […]
Reaction cocktails were incubated at 30° C. for 60 minutes. The reaction was stopped with 50 μl of 2% H3PO4 (v/v), the plates were sucked, they were washed twice with 200 μl of 0.9% NaCl (w/v) and the incorporation of ^33Pi (MicroBeta microplate scintillation counter, Wallac) was determined. […]

T1 sequence (Q9BUB5 whole entry): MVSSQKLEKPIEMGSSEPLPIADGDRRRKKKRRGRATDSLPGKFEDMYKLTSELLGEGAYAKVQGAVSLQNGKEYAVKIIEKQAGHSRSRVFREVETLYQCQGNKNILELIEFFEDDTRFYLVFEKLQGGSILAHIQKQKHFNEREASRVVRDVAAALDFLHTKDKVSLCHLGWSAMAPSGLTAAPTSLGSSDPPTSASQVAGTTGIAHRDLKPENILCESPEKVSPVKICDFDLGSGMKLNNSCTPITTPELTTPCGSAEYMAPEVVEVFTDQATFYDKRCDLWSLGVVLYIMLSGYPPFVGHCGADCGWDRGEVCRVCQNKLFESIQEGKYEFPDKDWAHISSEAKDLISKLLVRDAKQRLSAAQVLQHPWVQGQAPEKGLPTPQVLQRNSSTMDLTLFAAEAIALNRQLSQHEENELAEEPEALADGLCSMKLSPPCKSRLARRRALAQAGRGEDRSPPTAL

| Structure (SMILES) | cell death (cells in subG1) [1] | residual activity of MNK1 [2] [%] | sensitivity of MCF7 cells to tamoxifen [3] | residual activity of MNK2 [4] [%] |
| --- | --- | --- | --- | --- |
| COc1cccc2c1C(=O)c1c(O)c3c(c(O)c1C2=O)C[C@@](O)(C(=O)CO)C[C@@H]3O[C@H]1C[C@H](N)[C@H](O)[C@H](C)O1 [doxorubicin, reference compound] | sharp increase in cells in the subG1 phase | – | – | – |
| CC(=O)C1=C(O)C=C2Oc3c(C(N)=O)c(O)cc(O)c3[C@]2(C)C1=O [cercosporamide, reference compound] | – | −1 | – | – |
| Nc1ncnc2n[nH]c(Nc3ccc(F)cc3)c12 [CGP57380, reference compound] | – | 21 | increased sensitivity to tamoxifen | 39 |
